One experiment addresses CDK2 (Homo sapiens (Human), UniProt P24941). Description: CDK2 NanoBiT assay (HiBiT-tagged CDK2 degradation). The class given is cell-based. As to conditions: C-terminal HiBiT tag on CDK2, LgBiT, 24 hours. An outline of the steps: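 HEK293 line with CRISPR knock-in C-terminal HiBiT-tagged CDK2 and stable LgBiT, preincubated 16 h with live-cell substrate, then compound-treated 24 h at 37° C, 5% CO2 (30 μM stock). Luminescence normalized to plate negative and positive controls; EC50 from 3-parameter logistic fit, Hill slope 1.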
A general note: The HiBiT peptide binds its large partner to form an active luciferase.

The next experiment deals with CRBN-DDB1 (Homo sapiens (Human), UniProt Q96SW2). Description: CRBN HTRF assay (Cy5-Thalidomide probe displacement). The format is binding. As to conditions: CRBN-DDB1 2.5 nM, Cy5-Thalidomide 100 nM, 30 min; Ki from geometric mean IC50 by Cheng-Prusoff. A digest of the protocol: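 HTRF displacement of Cy5-thalidomide probe (100 nM) from His-CRBN-DDB1 (2.5 nM) with anti-His terbium cryptate, in HEPES/NaCl/TCEP/EDTA/Tween20 buffer. 10-point 1:3 compound series, 30 min at ambient temperature; signal normalised to DMSO and lenalidomide controls, IC50 fitted and Ki derived by Cheng-Prusoff.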
Chain of CRBN-DDB1 (Q96SW2 whole entry): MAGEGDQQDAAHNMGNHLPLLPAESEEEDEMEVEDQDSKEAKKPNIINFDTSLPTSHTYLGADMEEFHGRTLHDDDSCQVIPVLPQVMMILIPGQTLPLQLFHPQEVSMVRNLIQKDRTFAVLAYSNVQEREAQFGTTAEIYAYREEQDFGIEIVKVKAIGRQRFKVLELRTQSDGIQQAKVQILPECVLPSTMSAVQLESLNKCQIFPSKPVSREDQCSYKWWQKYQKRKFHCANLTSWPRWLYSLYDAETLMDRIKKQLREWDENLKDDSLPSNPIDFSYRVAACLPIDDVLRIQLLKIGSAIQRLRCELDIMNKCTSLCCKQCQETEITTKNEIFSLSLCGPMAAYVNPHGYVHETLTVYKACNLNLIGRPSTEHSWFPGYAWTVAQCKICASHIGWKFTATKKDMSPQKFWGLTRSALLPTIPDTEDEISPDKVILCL
Chain of CRBN-DDB1 (Q16531 whole entry partner): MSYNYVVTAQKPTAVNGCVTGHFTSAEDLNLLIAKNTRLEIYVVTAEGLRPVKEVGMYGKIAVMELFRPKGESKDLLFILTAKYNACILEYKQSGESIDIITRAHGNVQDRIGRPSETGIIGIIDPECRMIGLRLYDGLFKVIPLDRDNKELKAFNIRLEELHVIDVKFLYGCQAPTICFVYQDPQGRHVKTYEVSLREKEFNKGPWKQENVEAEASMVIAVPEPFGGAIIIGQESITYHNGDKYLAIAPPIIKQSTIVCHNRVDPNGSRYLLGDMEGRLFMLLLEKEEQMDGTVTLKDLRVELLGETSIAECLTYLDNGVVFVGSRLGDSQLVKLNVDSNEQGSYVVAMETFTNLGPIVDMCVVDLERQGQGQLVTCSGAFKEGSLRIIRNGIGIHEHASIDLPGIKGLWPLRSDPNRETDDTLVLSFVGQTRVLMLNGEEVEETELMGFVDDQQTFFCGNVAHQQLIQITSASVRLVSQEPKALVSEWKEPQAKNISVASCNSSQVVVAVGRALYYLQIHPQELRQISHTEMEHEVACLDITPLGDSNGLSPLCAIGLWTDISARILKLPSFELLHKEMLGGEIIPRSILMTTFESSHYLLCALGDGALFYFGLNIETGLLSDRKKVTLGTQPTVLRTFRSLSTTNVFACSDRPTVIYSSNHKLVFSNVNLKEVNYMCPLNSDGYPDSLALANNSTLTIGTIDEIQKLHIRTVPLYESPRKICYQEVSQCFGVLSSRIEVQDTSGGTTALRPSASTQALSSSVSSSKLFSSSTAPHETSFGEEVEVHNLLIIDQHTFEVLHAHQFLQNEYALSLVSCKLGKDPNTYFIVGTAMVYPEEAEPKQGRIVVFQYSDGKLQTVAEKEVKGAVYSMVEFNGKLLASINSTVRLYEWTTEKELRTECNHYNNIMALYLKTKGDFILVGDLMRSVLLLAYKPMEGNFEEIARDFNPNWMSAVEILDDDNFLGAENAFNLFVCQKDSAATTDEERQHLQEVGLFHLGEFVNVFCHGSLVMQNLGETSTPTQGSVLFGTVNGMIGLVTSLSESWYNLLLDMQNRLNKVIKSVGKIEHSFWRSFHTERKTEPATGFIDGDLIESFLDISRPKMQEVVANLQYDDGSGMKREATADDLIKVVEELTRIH

The structures appear in SMILES notation.

The Dmax is the greatest extent of degradation seen. The term Ki denotes a dissociation constant, usually derived from enzyme kinetics or from competition with a known ligand. Molecule `CN(C(=O)N1CC(OC(=O)NC2CN(c3cc(F)c(C4CCC(=O)NC4=O)c(F)c3)C2)C1)c1ccccc1Cl` (centres unmarked) [Compound 71, 1-((2-chlorophenyl)(methyl)carbamoyl)azetidin-3-yl (1-(4-(2,6-dioxopiperidin-3-yl)-3,5-difluorophenyl)azetidin-3-yl)carbamate] displayed a Dmax on CDK2 (HEK293, HEK293 clonal line) of 50 to 80%. Also, the Ki at CRBN-DDB1 is at most 100 nM.
In the same order, the values of `CN(C(=O)N1CC(OC(=S)NC2CN(c3cc(F)c(C4CCC(=O)NC4=O)c(F)c3)C2)C1)C1CC1` (centres unmarked) [Compound 108, O-(1-(cyclopropyl(methyl)carbamoyl)azetidin-3-yl) (1-(4-(2,6-dioxopiperidin-3-yl)-3,5-difluorophenyl)azetidin-3-yl)carbamothioate] are above 80% and at most 100 nM.
In the same order, the values of `Cn1c(N2CC(OC(=O)NC3CN(c4cc(F)c(C5CCC(=O)NC5=O)c(F)c4)C3)C2)nc2ccccc21` (centres unmarked) [Compound 75, 1-(1-methyl-1H-benzo[d]imidazol-2-yl)azetidin-3-yl (1-(4-(2,6-dioxopiperidin-3-yl)-3,5-difluorophenyl)azetidin-3-yl)carbamate] are 50 to 80% and at most 100 nM.
Take `O=C1CCC(c2c(F)cc(N3CC(Nc4nnc(-c5ccc(OC(F)(F)F)cc5)o4)C3)cc2F)C(=O)N1` (centres unmarked) [Compound 103, 3-(2,6-difluoro-4-(3-((5-(4-(trifluoromethoxy)phenyl)-1,3,4-oxadiazol-2-yl)amino)azetidin-1-yl)phenyl)piperidine-2,6-dione]: on CDK2 (HEK293, HEK293 clonal line), the maximal degradation (Dmax) is above 80%. Besides, the Ki at CRBN-DDB1 is at most 100 nM.
`COc1ccc(C(=O)N2CC(OC(=O)NC3CN(c4cc(F)c(C5CCC(=O)NC5=O)c(F)c4)C3)C2)cc1` (centres unmarked) [Compound 21, 1-(4-methoxybenzoyl)azetidin-3-yl (1-(4-(2,6-dioxopiperidin-3-yl)-3,5-difluorophenyl)azetidin-3-yl)carbamate] displayed a Dmax at CDK2 (HEK293, HEK293 clonal line) of 10 to 50%. This molecule returned a Ki on CRBN-DDB1 of at most 100 nM.
`Cc1ccc(-c2nnc(N[C@H]3CN(c4cc(F)c(C5CCC(=O)NC5=O)c(F)c4)[C@@H]3C)o2)cc1` (stereo partly drawn) [Compound 143, 3-(2,6-difluoro-4-((2R,3S)-2-methyl-3-((5-(p-tolyl)-1,3,4-oxadiazol-2-yl)amino)azetidin-1-yl)phenyl)piperidine-2,6-dione] displayed a Dmax at CDK2 (HEK293, HEK293 clonal line) of 50 to 80%. Further, on CRBN-DDB1, the Ki fell in the range of 100 to 1000 nM.
Consider `CC(C)(C)[Si](C)(C)O[C@H]1C[C@H](COC(=O)NC2CN(c3cc(F)c(C4CCC(=O)NC4=O)c(F)c3)C2)C1` (some centres unmarked) [Compound 50, ((1r, 3r)-3-((tert-butyldimethylsilyl)oxy)cyclobutyl)methyl (1-(4-(2,6-dioxopiperidin-3-yl)-3,5-difluorophenyl)azetidin-3-yl)carbamate], for which the Dmax on CDK2 (HEK293, HEK293 clonal line) is above 80%. The same molecule displayed a Ki on CRBN-DDB1 of 100 to 1000 nM.
In turn, `O=C1CCC(c2c(F)cc(N3C[C@H](Nc4nnc(C5CC6(CCC6)C5)o4)CC3=O)cc2F)C(=O)N1` (stereo partly drawn) [Compound 92, 3-(2,6-difluoro-4-((R)-2-oxo-4-((5-(spiro[3.3]heptan-2-yl)-1,3,4-oxadiazol-2-yl)amino)pyrrolidin-1-yl)phenyl)piperidine-2,6-dione] gave a Dmax at CDK2 (HEK293, HEK293 clonal line) of 50 to 80%. The molecule further came in with an inhibitory constant (Ki) at CRBN-DDB1 of at most 100 nM.
The corresponding values for `O=C1CCC(c2ccc(N3CC(NC(=O)OCC4CC5(CCC5)C4)C3)cc2Cl)C(=O)N1` (centres unmarked) [Compound 60, spiro[3.3]heptan-2-ylmethyl (1-(3-chloro-4-(2,6-dioxopiperidin-3-yl)phenyl)azetidin-3-yl)carbamate] are above 80% and at most 100 nM.
`Cc1ccc(N(C)C(=O)C23CC(OC(=O)NC4CN(c5cc(F)c(C6CCC(=O)NC6=O)c(F)c5)C4)(C2)C3)c(C)c1` (centres unmarked) [Compound 117, 3-((2,4-dimethylphenyl)(methyl)carbamoyl)bicyclo[1.1.1]pentan-1-yl (1-(4-(2,6-dioxopiperidin-3-yl)-3,5-difluorophenyl)azetidin-3-yl)carbamate] displayed a Dmax on CDK2 (HEK293, HEK293 clonal line) of 10 to 50%. Besides, at CRBN-DDB1, the Ki was at most 100 nM.
In the same order, the values of `CN(C(=O)C12CC(OC(=O)NC3CN(c4cc(F)c(C5CCC(=O)NC5=O)c(F)c4)C3)(C1)C2)c1ccc(F)cc1` (centres unmarked) [Compound 132, 3-((4-fluorophenyl)(methyl)carbamoyl)bicyclo[1.1.1]pentan-1-yl (1-(4-(2,6-dioxopiperidin-3-yl)-3,5-difluorophenyl)azetidin-3-yl)carbamate] are 50 to 80% and at most 100 nM.
The molecule `COc1ccc(N(C)C(=O)N2CC(OC(=O)NC3CN(c4cc(F)c(C5CCC(=O)NC5=O)c(F)c4)C3)C2)cc1` (centres unmarked) [Compound 13, 1-((4-methoxyphenyl)(methyl)carbamoyl)azetidin-3-yl(1-(4-(2,6-dioxopiperidin-3-yl)-3,5-difluorophenyl)azetidin-3-yl)carbamate] had a Dmax on CDK2 (HEK293, HEK293 clonal line) of 50 to 80%. This molecule showed an inhibition constant (Ki) on CRBN-DDB1 of at most 100 nM.
In the same order, the values of `CC1(CCc2nnc(NC3CN(c4cc(F)c(C5CCC(=O)NC5=O)c(F)c4)C3)o2)CC1` (centres unmarked) [Compound 122, 3-(2,6-difluoro-4-(3-((5-(2-(1-methylcyclopropyl)ethyl)-1,3,4-oxadiazol-2-yl)amino)azetidin-1-yl)phenyl)piperidine-2,6-dione] are 10 to 50% and at most 100 nM.
The corresponding values for `O=C1CCC(c2c(F)cc(N3CC(NC(=O)OC4CN(C(=O)c5ccc(F)cc5)C4)C3)cc2F)C(=O)N1` (centres unmarked) [Compound 22, 1-(4-fluorobenzoyl)azetidin-3-yl (1-(4-(2,6-dioxopiperidin-3-yl)-3,5-difluorophenyl)azetidin-3-yl)carbamate] are 50 to 80% and 100 to 1000 nM.
In the same order, the values of `CN(C)C(=O)N1CC(OC(=O)NC2CN(c3cc(F)c(C4CCC(=O)NC4=O)c(F)c3)C2)C1` (centres unmarked) [Compound 45, 1-(dimethylcarbamoyl)azetidin-3-yl (1-(4-(2,6-dioxopiperidin-3-yl)-3,5-difluorophenyl)azetidin-3-yl)carbamate] are 10 to 50% and at most 100 nM.
At CDK2 (HEK293, HEK293 clonal line), `O=C1CCC(c2c(F)cc(N3CC[C@@H](NC(=O)OCC4CC5(CCC5)C4)C3)cc2F)C(=O)N1` (stereo partly drawn) [Compound 64, spiro[3.3]heptan-2-ylmethyl ((3R)-1-(4-(2,6-dioxopiperidin-3-yl)-3,5-difluorophenyl)pyrrolidin-3-yl)carbamate] yielded a Dmax above 80%. In addition, the Ki on CRBN-DDB1 is at most 100 nM.
The molecule `CC(C)(C)[Si](C)(C)O[C@H]1C[C@H](OC(=O)NC2CN(c3cc(F)c(C4CCC(=O)NC4=O)c(F)c3)C2)C1` (some centres unmarked) [Compound 47, (1r, 3r)-3-((tert-butyldimethylsilyl)oxy)cyclobutyl (1-(4-(2,6-dioxopiperidin-3-yl)-3,5-difluorophenyl)azetidin-3-yl)carbamate] yielded a Dmax at CDK2 (HEK293 clonal line) above 80%. The Ki on CRBN-DDB1 is at most 100 nM.
On to `CN(C(=O)N1CC(OC(=O)NC2CN(c3cc(F)c(C4CCC(=O)NC4=O)c(F)c3)C2)C1)c1ccc(C#N)cc1` (centres unmarked) [Compound 73, 1-((4-cyanophenyl)(methyl)carbamoyl)azetidin-3-yl (1-(4-(2,6-dioxopiperidin-3-yl)-3,5-difluorophenyl)azetidin-3-yl)carbamate], for which the Dmax at CDK2 (HEK293, HEK293 clonal line) lay within 50 to 80%. Moreover, at CRBN-DDB1, the Ki was at most 100 nM.
The corresponding values for `CN(C(=O)N1CC(OC(=O)NC2CN(c3cc(F)c(C4CCC(=O)NC4=O)c(F)c3)C2)C1)c1ccc(Cl)cc1` (centres unmarked) [Compound 138, 1-((4-chlorophenyl)(methyl)carbamoyl)azetidin-3-yl (1-(4-(2,6-dioxopiperidin-3-yl)-3,5-difluorophenyl)azetidin-3-yl)carbamate] are 50 to 80% and at most 100 nM.

The values above are taken from patent US20250263395A1, “COMPOUNDS THAT MEDIATE PROTEIN DEGRADATION AND METHODS OF USE THEREOF” (Monte Rosa Therapeutics AG, priority 2022, published 2025).
